Literature values as cited in patent US20070155664A1, “Parathyroid hormone (pth) containing pharmaceutical compositions for oral use” (Nycomed Danmark A/S, priority 2003, published 2007).

What was measured:
pre-menopausal women = settings: 1200 mg calcium supplements daily, three menstrual cycles; placebo 48%
postmenopausal women = settings: calcium supplementation

[Ca+2] [calcium]
oral administered dose absorbed (oral): 20-33%
absorption efficiency (young adult, on average): about 30%
women with PMS related symptoms (pre-menopausal women): 30%
reduced bone loss, on average (postmenopausal women): about 1 % year
